“And” between values parts separate entries of the source, which are not always exact repeats. Equal entries are not always repeated.
How the values were obtained:
[1] = target: T1, Protein farnesyltransferase (Homo sapiens) (UniProt P49354+P49356); test: Inhibition of [3H]FPP incorporation into H-ras CVLS by farnesyltransferase; type: protein-complex assay
[2] = target: T1, Protein farnesyltransferase (Homo sapiens); test: Percent inhibition of [3H]FPP incorporation into H-ras CVLS by farnesyltransferase at 0.4 uM; type: protein-complex assay
[3] = target: T1, Protein farnesyltransferase (Homo sapiens); test: Percent inhibition of [3H]FPP incorporation into H-ras CVLS by farnesyltransferase at 1.1 uM; type: protein-complex assay
[4] = Inhibition of [3H]-FPP incorporation into H-ras CVLS by farnesyltransferase

inhibition [3] | SMILES | IC50 [4] | also measured
– | O=C(NCc1cccnc1)[C@@H]1CCCCN1C1c2ccc(Cl)cc2CCc2cc(Br)cnc21 (stereo partly specified) | – | Inhibitory activity [1]: 0.3 µM and 0.16 µM
– | O=C(NCc1cccnc1)[C@H]1CCCCN1C1c2ccc(Cl)cc2CCc2cc(Br)cnc21 (stereo partly specified) | – | inhibition [2]: 0.4% and 11%
18% and 27% | O=C(NCc1ccncc1)[C@H]1CCCCN1C1c2ccc(Cl)cc2CCc2cc(Br)cnc21 (stereo partly specified) | – | –
– | NC(=O)N1CCC(CC(=O)N2CCC([C@H]3c4ncc(Br)cc4CCc4cc(Cl)cc(Br)c43)CC2)CC1 [LONAFARNIB] | 2 nM | –
– | O=C(NCCCn1ccnc1)[C@@H]1CCCCN1C1c2ncc(Br)cc2CCc2cc(Cl)cc(Br)c21 (stereo partly specified) | 0.9 nM and 0.4 nM | –
0% and 13% | O=C(NCc1ccncc1)[C@@H]1CCCCN1C1c2ccc(Cl)cc2CCc2cc(Br)cnc21 (stereo partly specified) | – | –

Source: ChEMBL document CHEMBL1138704, “Farnesyl protein transferase inhibitors targeting the catalytic zinc for enhanced binding” (Bioorg Med Chem Lett, 2004)
